Numbers after ± are expanded uncertainties.
Experiment: mn = molality of the nth substance listed, in mol/kg
Settings: Liquid; for speed of sound: 100 kPa, Sing-around technique in a fixed-path interferometer; for mass density: 101 kPa, Vibrating tube method

O=P([O-])([O-])O.[K+].[K+] [dipotassium hydrogen phosphate] + O
speed of sound (288.15 K, m1 = 0.01907): 1466.9 ± 20 m/s | speed of sound (288.15 K, m1 = 0.04894): 1471.1 ± 20 m/s | speed of sound (288.15 K, m1 = 0.06838): 1473.8 ± 20 m/s | speed of sound (288.15 K, m1 = 0.09992): 1478.3 ± 20 m/s | speed of sound (288.15 K, m1 = 0.1992): 1492.2 ± 20 m/s | speed of sound (288.15 K, m1 = 0.2993): 1506.3 ± 20 m/s | speed of sound (288.15 K, m1 = 0.3965): 1520 ± 20 m/s | speed of sound (288.15 K, m1 = 0.4942): 1533.8 ± 20 m/s | speed of sound (288.15 K, m1 = 0.6): 1548.6 ± 20 m/s | speed of sound (288.15 K, m1 = 0.6969): 1562.3 ± 20 m/s | speed of sound (288.15 K, m1 = 0.7929): 1575.8 ± 20 m/s | speed of sound (288.15 K, m1 = 0.8916): 1589.7 ± 20 m/s | speed of sound (288.15 K, m1 = 0.9907): 1603.6 ± 20 m/s | mass density (288.15 K, m1 = 0.01907): 1001.68 ± 14 kg/m3 | mass density (288.15 K, m1 = 0.04894): 1005.7 ± 14 kg/m3 | mass density (288.15 K, m1 = 0.06838): 1008.31 ± 14 kg/m3 | mass density (288.15 K, m1 = 0.09992): 1012.56 ± 14 kg/m3 | mass density (288.15 K, m1 = 0.1992): 1025.92 ± 14 kg/m3 | mass density (288.15 K, m1 = 0.2993): 1039.39 ± 14 kg/m3 | mass density (288.15 K, m1 = 0.3965): 1052.47 ± 14 kg/m3 | mass density (288.15 K, m1 = 0.4942): 1065.63 ± 14 kg/m3 | mass density (288.15 K, m1 = 0.6): 1079.87 ± 14 kg/m3 | mass density (288.15 K, m1 = 0.6969): 1092.92 ± 14 kg/m3 | mass density (288.15 K, m1 = 0.7929): 1105.83 ± 14 kg/m3 | mass density (288.15 K, m1 = 0.8916): 1119.12 ± 14 kg/m3 | mass density (288.15 K, m1 = 0.9907): 1132.46 ± 14 kg/m3 | speed of sound (293.15 K, m1 = 0.01907): 1484.8 ± 20 m/s | speed of sound (293.15 K, m1 = 0.04894): 1489 ± 20 m/s | speed of sound (293.15 K, m1 = 0.06838): 1491.8 ± 20 m/s | speed of sound (293.15 K, m1 = 0.09992): 1496.2 ± 20 m/s | speed of sound (293.15 K, m1 = 0.1992): 1510.2 ± 20 m/s | speed of sound (293.15 K, m1 = 0.2993): 1524.2 ± 20 m/s | speed of sound (293.15 K, m1 = 0.3965): 1537.9 ± 20 m/s | speed of sound (293.15 K, m1 = 0.4942): 1551.7 ± 20 m/s | speed of sound (293.15 K, m1 = 0.6): 1566.6 ± 20 m/s | speed of sound (293.15 K, m1 = 0.6969): 1580.2 ± 20 m/s | speed of sound (293.15 K, m1 = 0.7929): 1593.7 ± 20 m/s | speed of sound (293.15 K, m1 = 0.8916): 1607.6 ± 20 m/s | speed of sound (293.15 K, m1 = 0.9907): 1621.5 ± 20 m/s | mass density (293.15 K, m1 = 0.01907): 1000.76 ± 14 kg/m3 | mass density (293.15 K, m1 = 0.04894): 1004.75 ± 14 kg/m3 | mass density (293.15 K, m1 = 0.06838): 1007.35 ± 14 kg/m3 | mass density (293.15 K, m1 = 0.09992): 1011.57 ± 14 kg/m3 | mass density (293.15 K, m1 = 0.1992): 1024.84 ± 14 kg/m3 | mass density (293.15 K, m1 = 0.2993): 1038.23 ± 14 kg/m3 | mass density (293.15 K, m1 = 0.3965): 1051.22 ± 14 kg/m3 | mass density (293.15 K, m1 = 0.4942): 1064.29 ± 14 kg/m3 | mass density (293.15 K, m1 = 0.6): 1078.43 ± 14 kg/m3 | mass density (293.15 K, m1 = 0.6969): 1091.39 ± 14 kg/m3 | mass density (293.15 K, m1 = 0.7929): 1104.22 ± 14 kg/m3 | mass density (293.15 K, m1 = 0.8916): 1117.41 ± 14 kg/m3 | mass density (293.15 K, m1 = 0.9907): 1130.67 ± 14 kg/m3 | speed of sound (298.15 K, m1 = 0.01907): 1499.7 ± 20 m/s | speed of sound (298.15 K, m1 = 0.04894): 1503.9 ± 20 m/s | speed of sound (298.15 K, m1 = 0.06838): 1506.6 ± 20 m/s | speed of sound (298.15 K, m1 = 0.09992): 1511.1 ± 20 m/s | speed of sound (298.15 K, m1 = 0.1992): 1525 ± 20 m/s | speed of sound (298.15 K, m1 = 0.2993): 1539.1 ± 20 m/s | speed of sound (298.15 K, m1 = 0.3965): 1552.8 ± 20 m/s | speed of sound (298.15 K, m1 = 0.4942): 1566.5 ± 20 m/s | speed of sound (298.15 K, m1 = 0.6): 1581.4 ± 20 m/s | speed of sound (298.15 K, m1 = 0.6969): 1595.1 ± 20 m/s | speed of sound (298.15 K, m1 = 0.7929): 1608.6 ± 20 m/s | speed of sound (298.15 K, m1 = 0.8916): 1622.5 ± 20 m/s | speed of sound (298.15 K, m1 = 0.9907): 1636.4 ± 20 m/s | mass density (298.15 K, m1 = 0.01907): 999.574 ± 14 kg/m3 | mass density (298.15 K, m1 = 0.04894): 1003.53 ± 14 kg/m3 | mass density (298.15 K, m1 = 0.06838): 1006.11 ± 14 kg/m3 | mass density (298.15 K, m1 = 0.09992): 1010.29 ± 14 kg/m3 | mass density (298.15 K, m1 = 0.1992): 1023.44 ± 14 kg/m3 | mass density (298.15 K, m1 = 0.2993): 1036.7 ± 14 kg/m3 | mass density (298.15 K, m1 = 0.3965): 1049.58 ± 14 kg/m3 | mass density (298.15 K, m1 = 0.4942): 1062.53 ± 14 kg/m3 | mass density (298.15 K, m1 = 0.6): 1076.55 ± 14 kg/m3 | mass density (298.15 K, m1 = 0.6969): 1089.39 ± 14 kg/m3 | mass density (298.15 K, m1 = 0.7929): 1102.11 ± 14 kg/m3 | mass density (298.15 K, m1 = 0.8916): 1115.18 ± 14 kg/m3 | mass density (298.15 K, m1 = 0.9907): 1128.32 ± 14 kg/m3 | speed of sound (303.15 K, m1 = 0.01907): 1514.5 ± 20 m/s | speed of sound (303.15 K, m1 = 0.04894): 1518.7 ± 20 m/s | speed of sound (303.15 K, m1 = 0.06838): 1521.5 ± 20 m/s | speed of sound (303.15 K, m1 = 0.09992): 1525.9 ± 20 m/s | speed of sound (303.15 K, m1 = 0.1992): 1539.9 ± 20 m/s | speed of sound (303.15 K, m1 = 0.2993): 1554 ± 20 m/s | speed of sound (303.15 K, m1 = 0.3965): 1567.6 ± 20 m/s | speed of sound (303.15 K, m1 = 0.4942): 1581.4 ± 20 m/s | speed of sound (303.15 K, m1 = 0.6): 1596.3 ± 20 m/s | speed of sound (303.15 K, m1 = 0.6969): 1609.9 ± 20 m/s | speed of sound (303.15 K, m1 = 0.7929): 1623.4 ± 20 m/s | speed of sound (303.15 K, m1 = 0.8916): 1637.3 ± 20 m/s | speed of sound (303.15 K, m1 = 0.9907): 1651.2 ± 20 m/s | mass density (303.15 K, m1 = 0.01907): 998.164 ± 14 kg/m3 | mass density (303.15 K, m1 = 0.04894): 1002.09 ± 14 kg/m3 | mass density (303.15 K, m1 = 0.06838): 1004.65 ± 14 kg/m3 | mass density (303.15 K, m1 = 0.09992): 1008.79 ± 14 kg/m3 | mass density (303.15 K, m1 = 0.1992): 1021.85 ± 14 kg/m3 | mass density (303.15 K, m1 = 0.2993): 1035.01 ± 14 kg/m3 | mass density (303.15 K, m1 = 0.3965): 1047.79 ± 14 kg/m3 | mass density (303.15 K, m1 = 0.4942): 1060.65 ± 14 kg/m3 | mass density (303.15 K, m1 = 0.6): 1074.56 ± 14 kg/m3 | mass density (303.15 K, m1 = 0.6969): 1087.3 ± 14 kg/m3 | mass density (303.15 K, m1 = 0.7929): 1099.92 ± 14 kg/m3 | mass density (303.15 K, m1 = 0.8916): 1112.9 ± 14 kg/m3 | mass density (303.15 K, m1 = 0.9907): 1125.93 ± 14 kg/m3 | speed of sound (308.15 K, m1 = 0.01907): 1522.3 ± 20 m/s | speed of sound (308.15 K, m1 = 0.04894): 1526.5 ± 20 m/s | speed of sound (308.15 K, m1 = 0.06838): 1529.3 ± 20 m/s | speed of sound (308.15 K, m1 = 0.09992): 1533.7 ± 20 m/s | speed of sound (308.15 K, m1 = 0.1992): 1547.7 ± 20 m/s | speed of sound (308.15 K, m1 = 0.2993): 1561.8 ± 20 m/s | speed of sound (308.15 K, m1 = 0.3965): 1575.4 ± 20 m/s | speed of sound (308.15 K, m1 = 0.4942): 1589.2 ± 20 m/s | speed of sound (308.15 K, m1 = 0.6): 1604.1 ± 20 m/s | speed of sound (308.15 K, m1 = 0.6969): 1617.7 ± 20 m/s | speed of sound (308.15 K, m1 = 0.7929): 1631.2 ± 20 m/s | speed of sound (308.15 K, m1 = 0.8916): 1645.1 ± 20 m/s | speed of sound (308.15 K, m1 = 0.9907): 1659 ± 20 m/s | mass density (308.15 K, m1 = 0.01907): 996.53 ± 14 kg/m3 | mass density (308.15 K, m1 = 0.04894): 1000.43 ± 14 kg/m3 | mass density (308.15 K, m1 = 0.06838): 1002.97 ± 14 kg/m3 | mass density (308.15 K, m1 = 0.09992): 1007.09 ± 14 kg/m3 | mass density (308.15 K, m1 = 0.1992): 1020.05 ± 14 kg/m3 | mass density (308.15 K, m1 = 0.2993): 1033.13 ± 14 kg/m3 | mass density (308.15 K, m1 = 0.3965): 1045.82 ± 14 kg/m3 | mass density (308.15 K, m1 = 0.4942): 1058.58 ± 14 kg/m3 | mass density (308.15 K, m1 = 0.6): 1072.4 ± 14 kg/m3 | mass density (308.15 K, m1 = 0.6969): 1085.06 ± 14 kg/m3 | mass density (308.15 K, m1 = 0.7929): 1097.59 ± 14 kg/m3 | mass density (308.15 K, m1 = 0.8916): 1110.48 ± 14 kg/m3 | mass density (308.15 K, m1 = 0.9907): 1123.43 ± 14 kg/m3

Source: the NIST ThermoML archive (doi:10.1021/acs.jced.5b00326)
